According to publication PMC5665533, “Generation of G protein-coupled receptor antibodies differentially sensitive to conformational states” (PLoS ONE, 2017):

Target: T1, dopamine D1 receptor (D1R) (Homo sapiens, UniProt P21728)
T1 construct: gene DRD1; endogenous full-length receptor in SK-N-SH neuroblastoma cells
Assay: ELISA, agonist-induced receptor recognition by anti-D1R antibody, SK-N-SH cells
Format: cell-based
Conditions: 1 μM agonist; endogenous receptor

T1 sequence (P21728 whole entry): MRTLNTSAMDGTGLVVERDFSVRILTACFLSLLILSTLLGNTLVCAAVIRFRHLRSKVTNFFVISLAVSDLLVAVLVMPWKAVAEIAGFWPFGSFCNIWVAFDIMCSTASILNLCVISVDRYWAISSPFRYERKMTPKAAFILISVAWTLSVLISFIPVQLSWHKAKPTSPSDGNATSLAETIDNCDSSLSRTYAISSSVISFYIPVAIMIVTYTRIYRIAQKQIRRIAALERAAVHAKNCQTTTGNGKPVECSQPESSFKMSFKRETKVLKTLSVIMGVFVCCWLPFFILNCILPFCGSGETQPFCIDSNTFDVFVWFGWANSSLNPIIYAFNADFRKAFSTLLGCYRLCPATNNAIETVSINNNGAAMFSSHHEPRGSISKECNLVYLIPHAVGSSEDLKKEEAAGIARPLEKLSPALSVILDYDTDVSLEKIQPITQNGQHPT

C=CCN1CCc2c(cc(O)c(O)c2Cl)C(c2cccc(C)c2)C1 (stereo not shown) [SKF83822]
ELISA, agonist-induced receptor recognition by anti-D1R antibody, SK-N-SH cells: treatment with the dopamine D1 receptor (D1R) agonist, SKF83822
